Tests used:
SHP2 = biological target: T1, SHP2 (Homo sapiens, UniProt Q06124); assay: DiFMUP phosphatase assay with recombinant SHP2; supported by cellular thermal shift assay in HEK293A lysate; type: biochemical
T1 construct: gene PTPN11; GST-SHP2 (residues 205–593)
T1 sequence (Q06124 205-593): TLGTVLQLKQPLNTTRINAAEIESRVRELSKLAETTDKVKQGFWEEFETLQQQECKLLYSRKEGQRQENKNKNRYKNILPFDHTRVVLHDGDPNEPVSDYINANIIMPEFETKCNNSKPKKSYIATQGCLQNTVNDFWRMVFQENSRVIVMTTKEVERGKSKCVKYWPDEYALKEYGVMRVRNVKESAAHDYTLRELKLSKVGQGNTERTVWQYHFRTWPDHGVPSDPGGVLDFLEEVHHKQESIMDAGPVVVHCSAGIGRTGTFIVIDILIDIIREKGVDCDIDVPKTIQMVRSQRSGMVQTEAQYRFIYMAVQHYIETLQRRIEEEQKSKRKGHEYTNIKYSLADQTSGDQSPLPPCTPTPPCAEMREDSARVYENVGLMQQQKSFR

SHP1 = biological target: T2, SHP1 (Homo sapiens, UniProt P29350); assay: DiFMUP phosphatase assay with recombinant SHP1; supported by thermal stability shift; type: biochemical
T2 construct: gene PTPN6
T2 sequence (P29350 whole entry): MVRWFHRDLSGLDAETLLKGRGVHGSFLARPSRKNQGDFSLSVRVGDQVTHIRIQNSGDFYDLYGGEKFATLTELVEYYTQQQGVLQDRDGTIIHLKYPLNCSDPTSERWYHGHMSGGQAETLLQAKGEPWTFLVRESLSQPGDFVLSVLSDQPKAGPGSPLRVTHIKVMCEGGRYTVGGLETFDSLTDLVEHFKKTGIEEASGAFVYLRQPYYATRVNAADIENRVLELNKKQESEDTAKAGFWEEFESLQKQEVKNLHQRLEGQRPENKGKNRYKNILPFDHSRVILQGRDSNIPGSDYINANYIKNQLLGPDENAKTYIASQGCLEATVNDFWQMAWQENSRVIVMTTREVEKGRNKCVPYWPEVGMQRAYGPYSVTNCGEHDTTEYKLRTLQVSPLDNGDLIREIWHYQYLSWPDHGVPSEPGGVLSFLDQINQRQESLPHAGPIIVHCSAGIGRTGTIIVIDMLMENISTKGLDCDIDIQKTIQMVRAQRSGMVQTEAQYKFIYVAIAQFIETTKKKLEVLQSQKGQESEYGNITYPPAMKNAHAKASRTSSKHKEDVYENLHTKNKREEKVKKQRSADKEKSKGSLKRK

Molecule `O=c1c(O)c(-c2ccc(O)c(O)c2)oc2cc(O)cc(O)c12` [quercetin] has an IC50 (SHP2) of 10.2 ± 0.21 µM and an IC50 (SHP1) of 31.1 ± 1.27 µM.

— paper PMC5768359, “Dietary quercetin potentiates the antiproliferative effect of interferon-α in hepatocellular carcinoma cells through activation of JAK/STAT pathway signaling by inhibition of SHP2 phosphatase” (Oncotarget, 2017)
